Experimental data from patent US5912372A, “Water-miscible esters of monoglycerides having antimicrobial activity” (priority 1997, dated 1999).

System: human respiratory syncytial virus (RSV)
Assay: RSV inhibition assay in LLC-MK2 cells, PBS as diluent
Format: cell-based
Conditions: compound alone
Protocol: Additional studies were performed to determine the synergistic anti-viral effects of diacetyltartaric acids esters of monoglycerides, lipophilic monoglycerides (MG) and carrageenan. These studies were carried out using […] and PBS as the diluent. The RSV inhibition assay semi-quantitativelydetermines the ability of a test material (antibody or other bioactive compound) to inhibit the infection of monkey kidney cells (LLC-MK2) by human respiratory syncytial virus (RSV). Infected cells are identified using an immunoperoxidase method and counted. The method is performed in a microtiter format and is described briefly below:
LLC-MK2 rhesus monkey kidney cells were obtained from the American Type Culture Collection and were cultured in Eagles modified essential medium (EMEM) supplemented with 10% fetal bovine serum. For RSV inhibition assays, LLC-MK2 cells at 5,000 cells/well were seeded into fibronectin treated microtiter plates and incubated for 3-4 days prior to use in the infectivity reduction assay. […] Plates were then rinsed as above with PBS/CEA, and the number of stained RSV-infected cells (IC) per well determined using an inverted microscope. The number of ICs' in triplicate wells was compared with the number of ICs' of virus control wells (mean of 9) and the percent inhibition (PI) calculated; [PI=1.0-[Mean ICs' per well of test sample/Mean ICs' per well of virus control]. […]

Substance: Carrageenan
- Enhancement Factor: 1.0
